Reference: BigSolDB 2.1

CO[C@@]1(NC(=O)CSCC#N)C(=O)N2C(C(=O)O)=C(CSc3nnnn3C)CS[C@@H]21
solubility (mole fraction)
Conditions	278.15 K	283.15 K	288.15 K	293.15 K	298.15 K	303.15 K
in ethanol	0.000215	0.000282	0.000369	0.000467	0.000596	0.000757
in isopropanol	4.6e-05	6.16e-05	8.19e-05	0.000107	0.000138	0.000174
in methanol	0.00154	0.00202	0.00264	0.00337	0.00429	0.00545
in water	1.57e-05	2.05e-05	2.65e-05	3.46e-05	4.39e-05	5.52e-05
